Laboratory results published in ChEMBL document CHEMBL2429735, “Preparation of imidazoles as potent calcitonin gene-related peptide (CGRP) antagonists” (Bioorg Med Chem Lett, 2013).

Experiments:
[1] = Permeability of the compound by PAMPA method at pH 7.4; type: ADME; conditions: read-out: permeability
[2] = target: Calcitonin gene-related peptide type 1 receptor (Homo sapiens, UniProt O60894+Q16602); assay: Antagonist activity at human CGRP receptor expressed in human SK-N-MC cells assessed as inhibition of CGRP-stimulated cAMP production; type: functional, cell-based
Liver microsomes [3] = assay: Metabolic stability in rat liver microsomes assessed as compound remaining; type: ADME, Microsome
Liver = assay: Metabolic stability in mouse liver microsomes assessed as compound remaining; type: ADME, Microsome
Liver microsomes [4] = assay: Metabolic stability in human liver microsomes assessed as compound remaining; type: ADME, Microsome

Sequence of Calcitonin gene-related peptide type 1 receptor (Q16602 whole entry, one chain of several): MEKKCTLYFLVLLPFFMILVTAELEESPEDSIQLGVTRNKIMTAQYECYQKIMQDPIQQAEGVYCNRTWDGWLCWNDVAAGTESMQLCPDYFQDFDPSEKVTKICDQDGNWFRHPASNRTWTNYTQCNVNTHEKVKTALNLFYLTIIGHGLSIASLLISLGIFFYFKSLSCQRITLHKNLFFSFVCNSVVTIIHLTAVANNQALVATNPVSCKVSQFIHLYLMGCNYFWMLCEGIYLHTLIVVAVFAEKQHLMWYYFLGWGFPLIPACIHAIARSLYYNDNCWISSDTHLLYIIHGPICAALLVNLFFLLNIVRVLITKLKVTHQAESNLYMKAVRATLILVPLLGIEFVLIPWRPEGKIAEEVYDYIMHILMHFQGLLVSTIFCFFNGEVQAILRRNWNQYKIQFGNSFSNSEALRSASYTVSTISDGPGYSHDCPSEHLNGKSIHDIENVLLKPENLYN

Row | SMILES | Papp [1] [×10⁻⁶ cm/s] | IC50 [2] [nM] | Stability (Liver microsomes [3]) [%] | Stability (Liver) [%] | Stability (Liver microsomes [4]) [%]
1 | Cc1cc(C[C@@H](NC(=O)N2CCC(N3Cc4cccc(F)c4NC3=O)CC2)C(=O)N2CCC(N3CCCCC3)CC2)cc2cn[nH]c12 | 1.1 | 0.026 | – | – | –
2 | Cc1cc(Cn2ccnc2C(Cc2cc(C)c3[nH]ncc3c2)NC(=O)N2CCC(N3Cc4ccccc4NC3=O)CC2)ccn1 (racemic) | – | 0.13 | 2 | 1 | 1
3 | Cc1cc(CC(NC(=O)N2CCC(N3Cc4ccccc4NC3=O)CC2)c2nc(Br)c(Br)[nH]2)cc2cn[nH]c12 (racemic) | – | 4.8 | – | – | –
4 | Cc1cc(CC(NC(=O)N2CCC(N3Cc4ccccc4NC3=O)CC2)c2nccn2Cc2ccccc2F)cc2cn[nH]c12 (racemic) | – | 1.9 | – | – | –
5 | Cc1cc(CC(NC(=O)N2CCC(N3Cc4ccccc4NC3=O)CC2)c2nccn2C)cc2cn[nH]c12 (racemic) | – | 4.8 | – | – | –
6 | Cc1cc(CC(OC(=O)N2CCC(c3cc4ccccc4[nH]c3=O)CC2)c2ncc3n2CCNC3)cc2cn[nH]c12 (racemic) | – | 2.9 | – | – | –
7 | Cc1cc(CC(NC(=O)N2CCC(N3Cc4ccccc4NC3=O)CC2)c2nccn2Cc2cc(F)cc(F)c2)cc2cn[nH]c12 (racemic) | – | 0.39 | 78 | 66 | 84
8 | Cc1cc(CC(NC(=O)N2CCC(N3Cc4ccccc4NC3=O)CC2)c2nccn2Cc2ccncc2)cc2cn[nH]c12 (racemic) | – | 0.83 | – | – | –
9 | Cc1cc(CC(NC(=O)N2CCC(N3Cc4ccccc4NC3=O)CC2)c2nc(Br)cn2Cc2cc(F)cc(F)c2)cc2cn[nH]c12 (racemic) | – | 0.39 | 100 | 93 | 100
10 | Cc1cc(CC(NC(=O)N2CCC(N3Cc4ccccc4NC3=O)CC2)c2nccn2Cc2cccc(F)c2)cc2cn[nH]c12 (racemic) | – | 0.63 | – | – | –
11 | Cc1cc(CC(NC(=O)N2CCC(N3Cc4ccccc4NC3=O)CC2)c2nccn2Cc2ccccn2)cc2cn[nH]c12 (racemic) | – | 1.6 | 1 | 0 | 1
12 | Cc1cc(CC(NC(=O)N2CCC(N3Cc4ccccc4NC3=O)CC2)c2nccn2Cc2ccc(F)cc2)cc2cn[nH]c12 (racemic) | – | 0.98 | – | – | –
13 | Cc1cc(CC(NC(=O)N2CCC(N3Cc4ccccc4NC3=O)CC2)c2nccn2Cc2cccnc2)cc2cn[nH]c12 (racemic) | – | 0.42 | 20 | 2 | 4
14 | Cc1cc(CC(NC(=O)N2CCC(N3Cc4ccccc4NC3=O)CC2)c2nccn2CCc2ccccc2)cc2cn[nH]c12 (racemic) | – | 0.88 | – | – | –
15 | Cc1cc(CC(OC(=O)N2CCC(c3cc4ccccc4[nH]c3=O)CC2)c2ncc3n2CCN(Cc2ccccc2)C3)cc2cn[nH]c12 (racemic) | – | – | 32 | 9 | 41
16 | Cc1cc(Cn2ccnc2C(Cc2cc(C)c3[nH]ncc3c2)NC(=O)N2CCC(N3Cc4ccccc4NC3=O)CC2)cc(Cl)n1 (racemic) | 3.8 | 0.078 | 2 | 0 | 2
17 | Cc1cc(CC(NC(=O)N2CCC(N3Cc4ccccc4NC3=O)CC2)c2ncc(C)n2Cc2cccc(F)c2)cc2cn[nH]c12 (racemic) | – | 0.37 | 87 | 85 | 100
18 | Cc1cc(CC(NC(=O)N2CCC(N3Cc4ccccc4NC3=O)CC2)c2nccn2Cc2ccccc2)cc2cn[nH]c12 (racemic) | – | 0.77 | – | – | –
19 | Cc1cc(CC(OC(=O)N2CCC(c3cc4ccccc4[nH]c3=O)CC2)c2ncc3n2CCN(C2CCCCC2)C3)cc2cn[nH]c12 (racemic) | – | – | 30 | 21 | 41
20 | Cc1cc(CC(NC(=O)N2CCC(N3Cc4ccccc4NC3=O)CC2)c2ncc(Br)[nH]2)cc2cn[nH]c12 (racemic) | – | 7.4 | – | – | –
21 | Cc1cc(CC(NC(=O)N2CCC(N3Cc4ccccc4NC3=O)CC2)c2nccn2Cc2ccc(C(C)(C)C)cc2)cc2cn[nH]c12 (racemic) | – | 0.19 | – | – | –
22 | Cc1cc(CC(NC(=O)N2CCC(N3Cc4ccccc4NC3=O)CC2)c2ncc[nH]2)cc2cn[nH]c12 (racemic) | – | 97 | – | – | –
23 | Cc1c[nH]c(C(Cc2cc(C)c3[nH]ncc3c2)NC(=O)N2CCC(N3Cc4ccccc4NC3=O)CC2)n1 (racemic) | – | 120 | – | – | –
